Experimental findings from patent US10010539B2, “Pyrazole, triazole and tetrazole orexin receptor antagonists” (MERCK SHARP & DOHME CORP., priority 2014, dated 2018) are described below.

SMILES strings stand for the structures.

For test [1], the target named is human orexin-2 receptor (Homo sapiens (Human), UniProt O43614). Put plainly: FLIPR Ca2+ Flux Assay, orexin-2 receptor (hOX2R FLIPR). The note with it: CHO cells expressing the human orexin-2 receptor; agonist 70 pM Ala-6,12 human orexin-A. It is filed as cell-based. As to the method:
(§1) The utility of the compounds in accordance with the present invention as orexin receptor OX1R and/or OX2R antagonists may be readily determined without undue experimentation by methodology well known in the art, including the “FLIPR Ca^2+ Flux Assay” (Okumura et al., Biochem. Biophys. Res. Comm. 280:976-981, 2001). In a typical experiment the OX1 and OX2 receptor antagonistic activity of the compounds of the present invention was determined in accordance with the following experimental method. For intracellular calcium measurements, Chinese hamster ovary (CHO) cells expressing the rat orexin-1 receptor or the human orexin-2 receptor, are grown in Iscove's modified DMEM containing 2 mM L-glutamine, […], 1% hypoxanthine-thymidine supplement, 100 U/ml penicillin, 100 μg/ml streptomycin and 10% heat-inactivated fetal calf serum (FCS). The cells are seeded at 20,000 cells/well into Becton-Dickinson black 384-well clear bottom sterile plates coated with poly-D-lysine. All reagents were from GIBCO-Invitrogen Corp. The seeded plates are incubated overnight at 37° C. and 5% CO2. Ala-6,12 human orexin-A as the agonist is prepared as a 1 mM stock solution in 1% bovine serum albumin (BSA) and diluted in assay buffer (HBSS containing 20 mM HEPES, 0.1% BSA and 2.5 mM probenecid, pH7.4) for use in the assay at a final concentration of 70 pM. Test compounds are prepared as 10 mM stock solution in DMSO, then diluted in 384-well plates, first in DMSO, then assay buffer. On the day of the assay, cells are washed 3 times with 100 μl assay buffer and then incubated for 60 min (37° C., 5% CO2) in 60 μl assay buffer containing 1 μM Fluo-4AM ester, 0.02% pluronic acid, and 1% BSA. The dye loading solution is then aspirated and cells are washed 3 times with 100 μl assay buffer. 30 μl of that same buffer is left in each well. Within the Fluorescent Imaging Plate Reader (FLIPR, Molecular Devices), test compounds are added to the plate in a volume of 25 μl, incubated for 5 min and finally 25 μl of agonist is added. Fluorescence is measured for each well at 1 second intervals for 5 minutes and the height of each fluorescence peak is compared to the height of the fluorescence peak induced by 70 pM Ala-6,12 orexin-A with buffer in place of antagonist. For each antagonist, IC50 value (the concentration of compound needed to inhibit 50% of the agonist response) is determined. Alternatively, compound potency can be assessed by a radioligand binding assay (described in Bergman et. al. Bioorg. Med. Chem. Lett. 2008, 18, 1425-1430) in which the inhibition constant (Ki) is determined in membranes prepared from CHO cells expressing either the OX1 or OX2 receptor. The intrinsic orexin receptor antagonist activity of a compound which may be used in the present invention may be determined by these assays.
A general note: Calcium assays in cells follow changes in intracellular calcium, usually with a dye or a luminescent sensor.

Test [2] addresses hOXIR (orexin-1 receptor) (Homo sapiens, UniProt O43613). Put plainly: FLIPR Ca2+ Flux Assay, orexin-1 receptor (hOXIR FLIPR). It is filed as cell-based. The note with it: CHO cells expressing the orexin-1 receptor (method text: rat; table head: hOXIR); agonist 70 pM Ala-6,12 human orexin-A. As to the method: as §1

Sequence of human orexin-2 receptor (O43614 whole entry): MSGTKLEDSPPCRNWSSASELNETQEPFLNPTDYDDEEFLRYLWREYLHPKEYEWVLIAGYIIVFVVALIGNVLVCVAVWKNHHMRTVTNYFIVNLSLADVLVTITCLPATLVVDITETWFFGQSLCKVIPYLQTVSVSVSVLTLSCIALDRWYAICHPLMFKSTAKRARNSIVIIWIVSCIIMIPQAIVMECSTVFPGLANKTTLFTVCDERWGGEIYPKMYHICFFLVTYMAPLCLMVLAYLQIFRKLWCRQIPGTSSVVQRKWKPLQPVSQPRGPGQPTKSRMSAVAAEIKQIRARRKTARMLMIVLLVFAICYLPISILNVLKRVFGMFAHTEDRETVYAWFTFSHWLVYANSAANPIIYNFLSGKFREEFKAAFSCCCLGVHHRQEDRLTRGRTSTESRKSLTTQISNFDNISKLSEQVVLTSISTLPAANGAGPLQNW

Usually IC50 stands for the concentration that inhibits the measured activity by half. Regarding `C[C@@H]1CC[C@@H](n2ncc(C(C)(C)O)n2)CN1C(=O)c1cc(F)ccc1-n1nccn1` [Example 38, 2-{2-[(3R,6R)-1-{[5-fluoro-2-(2H-1,2,3-triazol-2-yl)phenyl]carbonyl}-6-methylpiperidin-3-yl]-2H-1,2,3-triazol-4-yl}propan-2-ol], the IC50 is 0.0275 µM in test [1] and above 10 µM in test [2].

On to `C[C@@H]1CC[C@@H](n2ncc(C(C)(C)O)n2)CN1C(=O)c1cccnc1C1CC1` [Example 60, 2-(2-{(3R,6R)-1-[(2-Cyclopropylpyridin-3-yl)carbonyl]-6-methylpiperidin-3-yl}-2H-1,2,3-triazol-4-yl)propan-2-ol], for which the results for the IC50 in test [1] and in test [2] were 0.609 µM and above 10 µM, respectively.

On to `C[C@@H]1CC[C@@H](n2cc(C(C)(C)O)cn2)CN1C(=O)c1ccccc1OCC(F)F` [Example 79, 2-{1-[(3R,6R)-1-{[2-(2,2-Difluoroethoxy)phenyl]carbonyl}-6-methylpiperidin-3-yl]-1H-pyrazol-4-yl}propan-2-ol], for which the 50% inhibitory concentration (IC50) in test [1] was 0.127 µM; in test [2], above 10 µM.

In the case of `Cc1nn([C@@H]2CC[C@@H](C)N(C(=O)c3cccnc3OC(C)C)C2)nc1C(C)(C)O` [Example 63, 2-{5-Methyl-2-[(3R,6R)-6-methyl-1-{[2-(1-methylethoxy)pyridin-3-yl]carbonyl}piperidin-3-yl]-2H-1,2,3-triazol-4-yl}propan-2-ol], the figures for the half-maximal inhibitory concentration (IC50) in test [1] and in test [2] were 0.0159 µM and 3.35 µM, respectively.

Regarding `CCOc1ncccc1C(=O)N1C[C@H](n2cc(C(C)(C)O)cn2)CC[C@H]1C` [Example 89, 2-(1-{(3R,6R)-1-[(2-Ethoxypyridin-3-yl)carbonyl]-6-methylpiperidin-3-yl}-1H-pyrazol-4-yl)propan-2-ol], the results for the IC50 in test [1] and in test [2] were 0.283 µM and above 10 µM, respectively.

Take `CC(O)c1cnn([C@@H]2CC[C@@H](C)N(C(=O)c3cccnc3OCC(F)F)C2)n1` (stereo partly drawn) [Example 61, 1-{2-[(3R,6R)-1-{[2-(2,2-Difluoroethoxy)pyridin-3-yl]carbonyl}-6-methylpiperidin-3-yl]-2H-1,2,3-triazol-4-yl}ethanol]: the IC50 in test [1] is 0.681 µM; in test [2], above 10 µM.

Turning to `Cc1nc(-c2c(F)cccc2C(=O)N2C[C@H](n3ncc(C(C)(C)O)n3)CC[C@H]2C)no1` [Example 37, 2-{2-[(3R,6R)-1-{[3-fluoro-2-(5-methyl-1,2,4-oxadiazol-3-yl)phenyl]carbonyl}-6-methylpiperidin-3-yl]-2H-1,2,3-triazol-4-yl}propan-2-ol], the half-maximal inhibitory concentration (IC50) in test [1] is 0.0752 µM; in test [2], above 10 µM.

As for `Cc1nn([C@@H]2CC[C@@H](C)N(C(=O)c3ccccc3-n3nccn3)C2)nc1C(C)(C)O` [Example 62, 2-{5-Methyl-2-[(3R,6R)-6-methyl-1-{[2-(2H-1,2,3-triazol-2-yl)phenyl]carbonyl}piperidin-3-yl]-2H-1,2,3-triazol-4-yl}propan-2-ol], the IC50 in test [1] came out at 0.0125 µM; in test [2], 1.25 µM.

As to `C[C@@H]1CC[C@@H](n2ncc([C@H](O)C(F)(F)F)n2)CN1C(=O)c1ccccc1-n1nccn1` [Example 26, (2-(2H-1,2,3-triazol-2-yl)phenyl) ((2R,5R)-2-methyl-5-(4-((S)-2,2,2-trifluoro-1-hydroxyethyl)-2H-1,2,3-triazol-2-yl)piperidin-1-yl)methanone], the half-maximal inhibitory concentration (IC50) in test [1] is 0.0867 µM; in test [2] it was above 10 µM.

Consider `C[C@@H]1CC[C@@H](n2cc(C(C)(C)O)cn2)CN1C(=O)c1ccccc1SC(F)(F)F` [Example 88, 2-{1-[(3R,6R)-6-Methyl-1-({2-[(trifluoromethyl)sulfanyl]phenyl}carbonyl)piperidin-3-yl]-1H-pyrazol-4-yl}propan-2-ol], for which the IC50 was 0.0152 µM in test [1] and 7.93 µM in test [2].

On to `C[C@@H]1CC[C@@H](n2ncc(C(C)(C)O)n2)CN1C(=O)c1ccccc1[C@@H]1CC1(F)F` [Example 22, 2-{2-[(3R,6R)-1-({2-[(1S)-2,2-difluorocyclopropyl]phenyl}carbonyl)-6-methylpiperidin-3-yl]-2H-1,2,3-triazol-4-yl}propan-2-ol], for which the concentration for half-maximal inhibition (IC50) in test [1] was determined as 0.0085 µM; in test [2] it was 0.733 µM.

Turning to `C[C@@H]1CC[C@@H](n2ncc(C(C)(C)O)n2)CN1C(=O)c1ccsc1-n1nccn1` [Example 33, 2-{2-[(3R,6R)-6-methyl-1-{[2-(2H-1,2,3-triazol-2-yl)thiophen-3-yl]carbonyl}piperidin-3-yl]-2H-1,2,3-triazol-4-yl}propan-2-ol], the IC50 amounted to 0.0184 µM in test [1] and 2.56 µM in test [2].

`Cc1nn([C@@H]2CC[C@@H](C)N(C(=O)c3ccc(F)cc3-n3nccn3)C2)nc1C(C)(C)O` [Example 72, 2-{2-[(3R,6R)-1-{[4-Fluoro-2-(2H-1,2,3-triazol-2-yl)phenyl]carbonyl}-6-methylpiperidin-3-yl]-5-methyl-2H-1,2,3-triazol-4-yl}propan-2-ol]: the half-inhibitory concentration (IC50) worked out at 0.0152 µM in test [1] and 1.29 µM in test [2].

In the case of `COc1cccc(-n2nccn2)c1C(=O)N1C[C@H](n2ncc(C(C)(C)O)n2)CC[C@H]1C` [Example 51, 2-{2-[(3R,6R)-1-{[2-methoxy-6-(2H-1,2,3-triazol-2-yl)phenyl]carbonyl}-6-methylpiperidin-3-yl]-2H-1,2,3-triazol-4-yl}propan-2-ol], the IC50 in test [1] is 0.0674 µM; in test [2] it was above 10 µM.

On to `CC(C)Oc1ccccc1C(=O)N1C[C@H](n2ncc(C(C)(C)O)n2)CC[C@H]1C` [Example 17, ((2R,5R)-5-(4-(2-Hydroxypropan-2-yl)-2H-1,2,3-triazol-2-yl)-2-methylpiperidin-1-yl)(2-isopropoxyphenyl)methanone], for which the figures for the IC50 in test [1] and in test [2] were 0.0161 µM and 3.68 µM, respectively.

In the case of `COc1ccc(C(=O)N2C[C@H](n3ncc(C(C)(C)O)n3)CC[C@H]2C)c(-n2nccn2)n1` [Example 45, 2-{2-[(3R,6R)-1-{[6-methoxy-2-(2H-1,2,3-triazol-2-yl)pyridin-3-yl]carbonyl}-6-methylpiperidin-3-yl]-2H-1,2,3-triazol-4-yl}propan-2-ol], the half-inhibitory concentration (IC50) in test [1] was 0.0514 µM; in test [2], above 10 µM.

Take `CCCc1ccccc1C(=O)N1C[C@H](n2ncc(C(C)(C)O)n2)CC[C@H]1C` [Example 4, ((2R,5R)-5-(4-(2-Hydroxypropan-2-yl)-2H-1,2,3-triazol-2-yl)-2-methylpiperidin-1-yl)(2-propylphenyl)methanone]: the concentration for half-maximal inhibition (IC50) in test [1] is 0.0159 µM; in test [2], 8.11 µM.

Consider `C[C@@H]1CC[C@@H](n2cc(C(C)(C)O)cn2)CN1C(=O)c1ccccc1OC(F)F` [Example 84, 2-{1-[(3R,6R)-1-{[2-(Difluoromethoxy)phenyl]carbonyl}-6-methylpiperidin-3-yl]-1H-pyrazol-4-yl}propan-2-ol], for which the IC50 in test [1] is 0.464 µM; in test [2], above 10 µM.

Regarding `C[C@@H]1CC[C@@H](n2ncc(C(C)(C)O)n2)CN1C(=O)c1ncccc1-n1nccn1` [Example 58, 2-{2-[(3R,6R)-6-Methyl-1-{[3-(2H-1,2,3-triazol-2-yl)pyridin-2-yl]carbonyl}piperidin-3-yl]-2H-1,2,3-triazol-4-yl}propan-2-ol], the IC50 in test [1] is 0.0449 µM; in test [2], above 10 µM.

For the compound `Cc1nn([C@@H]2CC[C@@H](C)N(C(=O)c3ccccc3-n3cccn3)C2)nc1C(C)(C)O` [Example 71, 2-{5-Methyl-2-[(3R,6R)-6-methyl-1-{[2-(1H-pyrazol-1-yl)phenyl]carbonyl}piperidin-3-yl]-2H-1,2,3-triazol-4-yl}propan-2-ol], the figures for the IC50 in test [1] and in test [2] were 0.0093 µM and 2.71 µM, respectively.

Take `C[C@@H]1CC[C@@H](n2ncc(C(C)(C)O)n2)CN1C(=O)c1ccccc1OCC(F)F` [Example 18, (2-(2,2-Difluoroethoxy)phenyl)((2R,5R)-5-(4-(2-hydroxypropan-2-yl)-2H-1,2,3-triazol-2-yl)-2-methylpiperidin-1-yl)methanone]: the figures for the IC50 in test [1] and in test [2] were 0.015 µM and above 10 µM, respectively.

For `C[C@@H]1CC[C@@H](n2cc(C(C)(C)O)cn2)CN1C(=O)c1cccnc1-c1ccccc1` [Example 92, 2-(1-{(3R,6R)-6-Methyl-1-[(2-phenylpyridin-3-yl)carbonyl]piperidin-3-yl}-1H-pyrazol-4-yl)propan-2-ol], the figures for the concentration for half-maximal inhibition (IC50) in test [1] and in test [2] were 0.195 µM and above 10 µM, respectively.
